Assay results from ChEMBL document CHEMBL4334498, “Structures, NMR Spectroscopic Features, and Cytotoxic Properties of Oligomeric Hellinoyl (m-GO-m-GOG)-Type Ellagitannins from the Galls of Tamarix aphylla” (J Nat Prod, 2019).

What was measured:
Ca9-22 = test: Cytotoxicity against human Ca9-22 cells assessed as reduction in cell viability incubated for 48 hrs by MTT assay; assay type: functional; details: Ca9-22, 48 h
[1] = Cytotoxicity against human HPLF cells assessed as reduction in cell viability incubated for 48 hrs by MTT assay; assay type: cell-based
[2] = Cytotoxicity against human Pulp Cell cells assessed as reduction in cell viability incubated for 48 hrs by MTT assay; assay type: cell-based
HSC-2 = test: Cytotoxicity against human HSC2 cells assessed as reduction in cell viability incubated for 48 hrs by MTT assay; assay type: functional; details: HSC-2, 48 h
[3] = Cytotoxicity against human HGF cells assessed as reduction in cell viability incubated for 48 hrs by MTT assay; assay type: cell-based
HSC-4 = test: Cytotoxicity against human HSC4 cells assessed as reduction in cell viability incubated for 48 hrs by MTT assay; assay type: functional; details: HSC-4, 48 h

SMILES: O=C(O)c1cc(O)c(O)c(Oc2c(C(=O)O)cc(Oc3c(C(=O)O)cc(O)c(O)c3O)c(O)c2O)c1
- CC50 (Ca9-22): 345 µM
- CC50 at 48 h [1]: > 395 µM
- CC50 at 48 h [2]: > 395 µM
- CC50 (HSC-2): 246 µM
- CC50 at 48 h [3]: > 395 µM
- CC50 (HSC-4): 153 µM

SMILES: O=C(O[C@@H]1O[C@@H]2COC(=O)c3cc(O)c(O)c(O)c3-c3c(cc(O)c(O)c3O)C(=O)O[C@H]2[C@H](OC(=O)c2cc(O)c(O)c(O)c2)[C@H]1OC(=O)c1cc(O)c(O)c(O)c1Oc1cc(C(=O)O[C@@H]2O[C@@H]3COC(=O)c4cc(O)c(O)c(O)c4-c4c(cc(O)c(O)c4O)C(=O)O[C@H]3[C@H](OC(=O)c3cc(O)c(O)c(O)c3)[C@H]2OC(=O)c2cc(O)c(O)c(O)c2Oc2cc3c(c(O)c2O)Oc2cc(cc(O)c2O)C(=O)O[C@@H]2O[C@@H]4COC(=O)c5cc(O)c(O)c(O)c5-c5c(cc(O)c(O)c5O)C(=O)O[C@H]4[C@H](OC(=O)c4cc(O)c(O)c(O)c4)[C@H]2OC3=O)cc(O)c1O)c1cc(O)c(O)c(Oc2c(C(=O)O[C@H]3C(O)O[C@@H]4COC(=O)c5cc(O)c(O)c(O)c5-c5c(cc(O)c(O)c5O)C(=O)O[C@H]4[C@@H]3OC(=O)c3cc(O)c(O)c(O)c3)cc(O)c(O)c2O)c1 (stereo not given in full)
- CC50 (Ca9-22): 35 µM
- CC50 at 48 h [1]: > 56 µM
- CC50 at 48 h [2]: > 56 µM
- CC50 (HSC-2): 25 µM
- CC50 at 48 h [3]: > 56 µM
- CC50 (HSC-4): 24 µM

SMILES: COc1cccc2c1C(=O)c1c(O)c3c(c(O)c1C2=O)C[C@@](O)(C(=O)CO)C[C@@H]3O[C@H]1C[C@H](N)[C@H](O)[C@H](C)O1 [DOXORUBICIN]
- CC50 (Ca9-22): 0.7 µM
- CC50 at 48 h [1]: > 10 µM
- CC50 at 48 h [2]: > 10 µM
- CC50 at 48 h [3]: > 10 µM
- CC50 (HSC-4): 0.1 µM

SMILES: O=C(O[C@@H]1O[C@@H]2COC(=O)c3cc(O)c(O)c(O)c3-c3c(cc(O)c(O)c3O)C(=O)O[C@H]2[C@H](OC(=O)c2cc(O)c(O)c(O)c2)[C@H]1OC(=O)c1cc(O)c(O)c(O)c1Oc1cc2c(c(O)c1O)Oc1cc(cc(O)c1O)C(=O)O[C@@H]1O[C@@H]3COC(=O)c4cc(O)c(O)c(O)c4-c4c(cc(O)c(O)c4O)C(=O)O[C@H]3[C@H](OC(=O)c3cc(O)c(O)c(O)c3)[C@H]1OC2=O)c1cc(O)c(O)c(Oc2c(C(=O)O[C@H]3C(O)O[C@@H]4COC(=O)c5cc(O)c(O)c(O)c5-c5c(cc(O)c(O)c5O)C(=O)O[C@H]4[C@@H]3OC(=O)c3cc(O)c(O)c(O)c3)cc(O)c(O)c2O)c1 (stereo not given in full)
- CC50 (Ca9-22): 27 µM
- CC50 at 48 h [1]: > 75 µM
- CC50 at 48 h [2]: > 75 µM
- CC50 (HSC-2): 23 µM
- CC50 at 48 h [3]: > 75 µM
- CC50 (HSC-4): 26 µM

SMILES: O=c1[nH]cc(F)c(=O)[nH]1 [FLUOROURACIL]
- CC50 (Ca9-22): 262 µM
- CC50 at 48 h [1]: > 1000 µM
- CC50 at 48 h [2]: > 1000 µM
- CC50 (HSC-2): 47 µM
- CC50 at 48 h [3]: > 1000 µM
- CC50 (HSC-4): 25 µM

SMILES: O=C(OC[C@H]1O[C@H]2OC(=O)c3cc(O)c(O)c(c3)Oc3c(cc(Oc4c(C(=O)O[C@H]5[C@H](OC(=O)c6cc(O)c(O)c(O)c6)O[C@@H]6COC(=O)c7cc(O)c(O)c(O)c7-c7c(cc(O)c(O)c7O)C(=O)O[C@H]6[C@@H]5OC(=O)c5cc(O)c(O)c(O)c5)cc(O)c(O)c4O)c(O)c3O)C(=O)O[C@@H]2[C@@H](OC(=O)c2cc(O)c(O)c(O)c2)[C@@H]1O)c1cc(O)c(O)c(O)c1
- CC50 (Ca9-22): 25 µM
- CC50 at 48 h [1]: > 116 µM
- CC50 at 48 h [2]: > 116 µM
- CC50 (HSC-2): 21 µM
- CC50 at 48 h [3]: > 116 µM
- CC50 (HSC-4): 21 µM
